The values below come from patent US8859541B2, “6-alkynylpyridines” (Boehringer Ingelheim International GmbH, priority 2012, dated 2014).

In test [1] the target is T1, XIAP BIR3 (Homo sapiens, UniProt P98170).
T1 construct: covering amino acids 241 to 356; XIAP BIR3; made in house; host or cells: E. coli
As to the kind of experiment: XIAP BIR3 binding assay (DELFIA), displacement of SMAC peptide. Particulars: GST-fusion BIR3 domain (aa 241 to 356) 10 nM, SMAC peptide 10 nM; activity of the (S)-isomers. In outline: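 Each BIR3 domain (10 nM) incubated with biotinylated N-terminal SMAC peptide (10 nM) and compound for 1 h at room temp in Tris/NaCl buffer with BSA, DTT and Triton X-100. Captured on streptavidin plates; bound BIR3 detected by Eu-labelled anti-GST time-resolved fluorescence, giving IC50 values.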

For test [2], the target named is T2, cIAP1 BIR3 (Homo sapiens, UniProt Q13490).
T2 construct: covering amino acids 256 to 363; cIAP1 BIR3; made in house; host or cells: E. coli
As to the kind of experiment: cIAP1 BIR3 binding assay (DELFIA), displacement of SMAC peptide. Particulars: GST-fusion BIR3 domain (aa 256 to 363) 10 nM, SMAC peptide 10 nM; activity of the (S)-isomers. As to the method:
Biological Methods XIAP BIR3 and cIAP1 BIR3 Binding Assays (DELFIA)
Peptide […]-Lys(Biotin), representing the N-terminus of mature human SMAC (SMAC peptide), was used as interaction partner in the protein-peptide interaction assay.
BIR3 domains (10 nM) were incubated with SMAC peptide (10 nM) in Assay Buffer (50 mM Tris, 120 mM NaCl, 0.1% BSA, 1 mM DTT, 0.05% TritonX100) for one hour at room temperature in the presence of inhibitiory compounds. The assay mixture was transferred to a strepatvidin coated plate and incubated for one hour at room temperature to allow binding of the biotinylated peptide and associated BIR3 domains to the plate. After several washing steps Eu labeled anti-GST antibody (e.g. Perkin Elmer DELFIA Eu-N1-antiGST AD0250) was added to detect BIR3 domain-SMAC peptide interactions according to Perkin Elmer's instructions. […] Time resolved Europium fluoresecence was measured in a Wallac Victor using Standard assay settings.
DELFIA assay results were plotted against compound concentrations and Software GraphPad Prizm was used to calculate half maximal inhibitory concentrations (IC50 values).

The structures appear in SMILES notation.

T1 sequence (P98170 241-356): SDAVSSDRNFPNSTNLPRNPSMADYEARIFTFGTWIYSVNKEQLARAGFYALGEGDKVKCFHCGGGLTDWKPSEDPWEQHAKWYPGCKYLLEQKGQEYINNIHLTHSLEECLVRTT
T2 sequence (Q13490 256-363): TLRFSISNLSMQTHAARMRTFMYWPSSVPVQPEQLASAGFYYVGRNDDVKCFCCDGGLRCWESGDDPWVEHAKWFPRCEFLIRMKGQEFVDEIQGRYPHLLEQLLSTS

In the case of `CNC(C)C(=O)Nc1ccc(-c2c(C)nc3ccccn23)c(C#Cc2cc(C)nc3c(F)cccc23)n1` (stereo not drawn) [Example 92, N-[6-[2-(8-fluoro-2-methylquinolin-4-yl)ethynyl]-5-(2-methylimidazo[1,2-a]pyridin-3-yl)pyridin-2-yl]-2-(methyl-amino)propanamide], the figures for the IC50 in test [1] and in test [2] were 0.172 µM and 0.001 µM, respectively.
Turning to `CNC(C)C(=O)Nc1ccc(-c2c(C)nc3ccccn23)c(C#Cc2ccnc3c(F)cccc23)n1` (stereo not drawn) [Example 93, N-[6-[2-(8-fluoroquinolin-4-yl)-ethynyl]-5-(2-methyl-imidazo[1,2-a]pyridin-3-yl)-pyridin-2-yl]-2-(methylamino)-propanamide], the results for the IC50 in test [1] and in test [2] were 0.198 µM and 0.001 µM, respectively.
Regarding `CNC(C)C(=O)Nc1ccc(-c2c(-c3ccncc3)nc3cc(C)ccn23)c(C#Cc2ccc3c(c2)OCC(=O)N3C)n1` (stereo not drawn) [Example 94, 2-(methylamino)-N-[6-[2-(4-methyl-3-oxo-1,4-benzoxazin-7-yl)ethynyl]-5-(7-methyl-2-pyridin-4-ylimidazo[1,2-a]-pyridin-3-yl)pyridin-2-yl]-propanamide], the IC50 in test [1] was found to be 0.107 µM; in test [2], 0.001 µM.
Turning to `CNC(C)C(=O)Nc1ccc(-c2c(-c3ccncc3)nc3cc(C)ccn23)c(C#Cc2ccc3nccn3c2)n1` (stereo not drawn) [Example 95, N-[6-(2-imidazo[1,2-a]pyridin-6-ylethynyl)-5-(7-methyl-2-pyridin-4-ylimidazo[1,2-a]-pyridin-3-yl)pyridin-2-yl]-2-(methylamino)propanamide], the values for the IC50 in test [1] and in test [2] were 0.097 µM and 0.001 µM, respectively.
Regarding `CNC(C)C(=O)Nc1ccc(-c2c(-c3ccncc3)nc3cc(C)ccn23)c(C#Cc2ccc(OC)c3ncccc23)n1` (stereo not drawn) [Example 96, N-[6-[2-(8-methoxyquinolin-5-yl)ethynyl]-5-(7-methyl-2-pyridin-4-ylimidazo[1,2-a]-pyridin-3-yl)pyridin-2-yl]-2-(methylamino)propanamide], the 50% inhibitory concentration (IC50) in test [1] came to 0.083 µM; in test [2], 0.001 µM.
Consider `CC(N)C(=O)Nc1ccc(-c2cncc(Oc3ccccc3)c2)c(C#Cc2ccccc2)n1` (stereo not drawn) [Example 100, 2-amino-N-[5-(5-phenoxypyridin-3-yl)-6-(2-phenylethynyl)pyridin-2-yl]propanamide], for which the IC50 in test [1] worked out at 0.461 µM; in test [2], 0.324 µM.
The matching figures for `Cc1ccccc1-c1ccc(NC(=O)C(C)N)nc1C#Cc1ccccc1` (stereo not drawn) [Example 108, 2-amino-N-[5-(2-methylphenyl)-6-(2-phenylethynyl)pyridin-2-yl]-propanamide]: 1.61 µM and 0.175 µM.
On to `CC(N)C(=O)Nc1ccc(-c2cccc(C#N)c2)c(C#Cc2ccccc2)n1` (stereo not drawn) [Example 113, 2-amino-N-[5-(3-cyanophenyl)-6-(2-phenylethynyl)pyridin-2-yl]-propanamide], for which the IC50 in test [1] stood at 0.228 µM; in test [2] it was 0.067 µM.
For `CNC(C)C(=O)Nc1ccc(-c2cccc(NC(C)=O)c2)c(C#Cc2ccccc2)n1` (stereo not drawn) [Example 118, N-[5-(3-acetamidophenyl)-6-(2-phenylethynyl)pyridin-2-yl]-2-(methylamino)propanamide], the IC50 in test [1] came out at 0.287 µM; in test [2], 0.092 µM.
As for `CNC(C)C(=O)Nc1ccc(-c2cncc(OC)c2)c(C#Cc2ccccc2)n1` (stereo not drawn) [Example 121, N-[5-(5-methoxypyridin-3-yl)-6-(2-phenylethynyl)pyridin-2-yl]-2-(methylamino)propanamide], the figures for the concentration for half-maximal inhibition (IC50) in test [1] and in test [2] were 0.097 µM and 0.031 µM, respectively.
Take `CNC(C)C(=O)Nc1ccc(-c2cncc(Cl)c2)c(C#Cc2ccccc2)n1` (stereo not drawn) [Example 122, N-[5-(5-chloropyridin-3-yl)-6-(2-phenylethynyl)pyridin-2-yl]-2-(methylamino)propanamide]: the IC50 in test [1] was 0.148 µM; in test [2], 0.023 µM.
The like results for `CNC(C)C(=O)Nc1ccc(-c2cncc(C#N)c2)c(C#Cc2ccccc2)n1` (stereo not drawn) [Example 123, N-[5-(5-cyanopyridin-3-yl)-6-(2-phenylethynyl)pyridin-2-yl]-2-(methylamino)propanamide] were, in that order, 0.121 µM and 0.025 µM.
Consider `CCOc1ccc(-c2ccc(NC(=O)C(C)NC)nc2C#Cc2ccccc2)cn1` (stereo not drawn) [Example 125, N-[5-(6-ethoxypyridin-3-yl)-6-(2-phenylethynyl)pyridin-2-yl]-2-(methylamino)propanamide], for which the IC50 in test [1] came out at 0.58 µM; in test [2], 0.131 µM.
With `CNC(C)C(=O)Nc1ccc(-c2ccc(OC)nc2OC)c(C#Cc2ccccc2)n1` (stereo not drawn) [Example 126, N-[5-(2,6-dimethoxypyridin-3-yl)-6-(2-phenylethynyl)pyridin-2-yl]-2-(methylamino)propanamide], the values for the IC50 in test [1] and in test [2] were 1.01 µM and 0.166 µM, respectively.
For the compound `CNC(C)C(=O)Nc1ccc(-c2cncc(C)c2)c(C#Cc2ccccc2)n1` (stereo not drawn) [Example 127, 2-(methylamino)-N-[5-(5-methylpyridin-3-yl)-6-(2-phenyl-ethynyl)pyridin-2-yl]propanamide], the IC50 is 0.128 µM in test [1] and 0.021 µM in test [2].
The like results for `CNC(C)C(=O)Nc1ccc(-c2ccc(N3CCCC3)nc2)c(C#Cc2ccccc2)n1` (stereo not drawn) [Example 129, 2-(methylamino)-N-[6-(2-phenyl-ethynyl)-5-(6-pyrrolidin-1-ylpyridin-3-yl)pyridin-2-yl]-propanamide] were, in that order, 0.436 µM and 0.098 µM.
As for `CNC(C)C(=O)Nc1ccc(-c2cccc3ccccc23)c(C#Cc2ccccc2)n1` (stereo not drawn) [Example 130, 2-(methylamino)-N-[5-naphthalen-1-yl-6-(2-phenyl-ethynyl)pyridin-2-yl]propanamide], the IC50 came to 3.2 µM in test [1] and 0.172 µM in test [2].
`CNC(C)C(=O)Nc1ccc(-c2cc(F)cc(C(=O)OC)c2)c(C#Cc2ccccc2)n1` (stereo not drawn) [Example 132, methyl 3-fluoro-5-[6-[[2-(methyl-amino)propanoyl]amino]-2-(2-phenylethynyl)pyridin-3-yl]-benzoate]: the values for the IC50 in test [1] and in test [2] were 0.326 µM and 0.097 µM, respectively.
Consider `CNC(C)C(=O)Nc1ccc(-c2cnn3ccccc23)c(C#Cc2ccccc2)n1` (stereo not drawn) [Example 138, 2-(methylamino)-N-[6-(2-phenyl-ethynyl)-5-pyrazolo[1,5-a]-pyridin-3-ylpyridin-2-yl]propan-amide], for which the half-inhibitory concentration (IC50) in test [1] amounted to 0.055 µM; in test [2], 0.012 µM.
Regarding `CNC(C)C(=O)Nc1ccc(-c2cscc2C#N)c(C#Cc2ccccc2)n1` (stereo not drawn) [Example 145, N-[5-(4-cyanothiophen-3-yl)-6-(2-phenylethynyl)pyridin-2-yl]-2-(methylamino)propanamide], the IC50 in test [1] came out at 0.317 µM; in test [2] it was 0.094 µM.
With `CNC(C)C(=O)Nc1ccc(-c2ccc(C)nc2)c(C#Cc2ccccc2)n1` (stereo not drawn) [Example 147, 2-(methylamino)-N-[5-(6-methylpyridin-3-yl)-6-(2-phenyl-ethynyl)pyridin-2-yl]propanamide], the figures for the IC50 in test [1] and in test [2] were 0.125 µM and 0.032 µM, respectively.
With `CNC(C)C(=O)Nc1ccc(-c2cncc(-c3ccccc3)c2)c(C#Cc2ccccc2)n1` (stereo not drawn) [Example 149, 2-(methylamino)-N-[6-(2-phenyl-ethynyl)-5-(5-phenylpyridin-3-yl)pyridin-2-yl]propanamide], the IC50 in test [1] came to 0.195 µM; in test [2] it was 0.08 µM.
Regarding `CNC(C)C(=O)Nc1ccc(-c2cnc(N3CCOCC3)nc2)c(C#Cc2ccccc2)n1` (stereo not drawn) [Example 161, 2-(methylamino)-N-[5-(2-morpholin-4-ylpyrimidin-5-yl)-6-(2-phenylethynyl)pyridin-2-yl]-propanamide], the IC50 amounted to 0.102 µM in test [1] and 0.022 µM in test [2].
The matching figures for `Cc1noc(C)c1-c1ccc(NC(=O)C(C)N)nc1C#Cc1ccccc1` (stereo not drawn) [Example 165, 2-amino-N-[5-(3,5-dimethyl-1,2-oxazol-4-yl)-6-(2-phenylethynyl)-pyridin-2-yl]propanamide]: 0.067 µM and 0.001 µM.
As for `[2H]C([2H])([2H])NC(C)C(=O)Nc1ccc(-c2c(C)noc2C)c(C#Cc2ccccc2)n1` (stereo not drawn) [Example 168, N-[5-(3,5-dimethyl-1,2-oxazol-4-yl)-6-(2-phenylethynyl)pyridin-2-yl]-2-(trideuteriomethylamino)propanamide], the IC50 was 0.151 µM in test [1] and 0.003 µM in test [2].
`CNC(C)C(=O)Nc1ccc(-c2c(C)nc3ccccn23)c(C#Cc2ccccc2)n1` (stereo not drawn) [Example 174, 2-(methylamino)-N-[5-(2-methyl-imidazo[1,2-a]pyridin-3-yl)-6-(2-phenylethynyl)pyridin-2-yl]-propanamide]: the half-inhibitory concentration (IC50) came to 0.051 µM in test [1] and 0.001 µM in test [2].
Regarding `CNC(C)C(=O)Nc1ccc(-c2ccc3c(c2)C(=O)NC3=O)c(C#Cc2ccccc2)n1` (stereo not drawn) [Example 175, N-[5-(1,3-dioxoisoindol-5-yl)-6-(2-phenylethynyl)pyridin-2-yl]-2-(methylamino)propanamide], the IC50 in test [1] turned out to be 0.103 µM; in test [2], 0.016 µM.

One may read the IC50 as the midpoint of a concentration-inhibition curve. Higher therefore signals a need for much substance.
